Activity calls are given as the source filed them.

One assay addresses T1, Coagulation factor XII (Homo sapiens, UniProt P00748).
T1 sequence (P00748 whole entry): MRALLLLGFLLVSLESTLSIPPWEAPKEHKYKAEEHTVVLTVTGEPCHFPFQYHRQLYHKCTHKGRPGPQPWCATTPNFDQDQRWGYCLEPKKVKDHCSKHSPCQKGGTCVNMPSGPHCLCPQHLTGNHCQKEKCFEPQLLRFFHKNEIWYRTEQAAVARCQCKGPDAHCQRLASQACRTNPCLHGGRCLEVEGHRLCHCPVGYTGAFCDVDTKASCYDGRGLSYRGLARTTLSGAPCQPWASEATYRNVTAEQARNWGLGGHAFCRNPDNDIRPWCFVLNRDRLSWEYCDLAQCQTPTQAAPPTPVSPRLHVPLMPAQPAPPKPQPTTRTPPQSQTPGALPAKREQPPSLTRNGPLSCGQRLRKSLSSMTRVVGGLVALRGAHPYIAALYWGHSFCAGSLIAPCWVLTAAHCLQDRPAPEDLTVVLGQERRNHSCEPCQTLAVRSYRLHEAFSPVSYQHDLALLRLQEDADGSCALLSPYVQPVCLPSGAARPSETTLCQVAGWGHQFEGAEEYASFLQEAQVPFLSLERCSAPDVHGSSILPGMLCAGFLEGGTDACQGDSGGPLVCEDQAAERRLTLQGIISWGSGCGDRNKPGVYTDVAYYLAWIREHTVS
Type of assay: functional.

A short description of assay [1]: reduction of Shn3 3'UTR-driven luciferase in osteoblasts – cell-based, Clone20 osteoblasts, firefly luciferase, cherry-picked, dose response (AID 624132).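 Further: firefly luciferase luminescence from reporter carrying the Shn3 3'UTR in osteoblasts.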 Type of assay: functional.
A further assay concerns the target Cytochrome P450 2C19 (Homo sapiens, UniProt P33261). The assay can be described thus: Cytochrome panel assay with activity outcomes. Panel member name: p450-cyp2c19 Compounds with AC50 equal or less than 10 uM are considered active. Type of assay: functional. The settings on record: read-out: AC50.
In a further assay the target is T2, Leucine aminopeptidase (Plasmodium falciparum 3D7, UniProt Q8IL11).
T2 sequence (Q8IL11 whole entry): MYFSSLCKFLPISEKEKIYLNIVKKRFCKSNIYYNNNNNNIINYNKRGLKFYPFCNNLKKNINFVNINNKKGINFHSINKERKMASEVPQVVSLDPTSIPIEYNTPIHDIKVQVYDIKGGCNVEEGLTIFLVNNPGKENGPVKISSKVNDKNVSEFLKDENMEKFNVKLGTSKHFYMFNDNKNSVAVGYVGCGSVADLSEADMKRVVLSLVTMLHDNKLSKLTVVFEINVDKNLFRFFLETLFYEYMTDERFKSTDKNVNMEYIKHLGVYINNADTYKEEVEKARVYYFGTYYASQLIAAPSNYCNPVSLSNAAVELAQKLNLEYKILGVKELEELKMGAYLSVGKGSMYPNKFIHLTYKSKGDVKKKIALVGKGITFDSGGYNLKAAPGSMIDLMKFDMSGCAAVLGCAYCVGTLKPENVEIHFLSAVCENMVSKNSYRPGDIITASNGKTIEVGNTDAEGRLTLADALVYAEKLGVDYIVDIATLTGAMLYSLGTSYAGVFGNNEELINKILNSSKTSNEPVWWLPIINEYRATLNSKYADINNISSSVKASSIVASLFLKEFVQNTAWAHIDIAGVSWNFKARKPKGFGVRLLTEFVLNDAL
In words: P. falciparum M17LAP inhibitors, primary screen, biochemical, fluorogenic H-Leu-NHMec substrate, 1536-well (AID 1619). Type of assay: functional.

In a further assay the target is Cytochrome P450 2C9 (Homo sapiens, UniProt P11712).
Cytochrome P450 2C9, sequence (P11712 whole entry): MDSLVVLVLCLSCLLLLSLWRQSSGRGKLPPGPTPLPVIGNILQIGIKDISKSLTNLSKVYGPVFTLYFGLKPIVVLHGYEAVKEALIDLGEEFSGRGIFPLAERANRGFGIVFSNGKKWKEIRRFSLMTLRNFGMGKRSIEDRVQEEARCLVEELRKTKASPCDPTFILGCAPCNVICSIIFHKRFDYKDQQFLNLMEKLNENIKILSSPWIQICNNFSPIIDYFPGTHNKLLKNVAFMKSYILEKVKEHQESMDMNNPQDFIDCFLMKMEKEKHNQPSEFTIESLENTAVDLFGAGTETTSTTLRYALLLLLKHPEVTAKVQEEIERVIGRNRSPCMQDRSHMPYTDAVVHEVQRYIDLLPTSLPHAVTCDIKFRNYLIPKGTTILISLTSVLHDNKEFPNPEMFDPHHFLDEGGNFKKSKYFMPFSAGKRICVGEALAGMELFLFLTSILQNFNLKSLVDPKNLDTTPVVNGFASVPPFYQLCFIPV
A further assay has as its target T3, Protein RecA (Mycobacterium tuberculosis, UniProt P9WHJ3).
T3 sequence (P9WHJ3 whole entry): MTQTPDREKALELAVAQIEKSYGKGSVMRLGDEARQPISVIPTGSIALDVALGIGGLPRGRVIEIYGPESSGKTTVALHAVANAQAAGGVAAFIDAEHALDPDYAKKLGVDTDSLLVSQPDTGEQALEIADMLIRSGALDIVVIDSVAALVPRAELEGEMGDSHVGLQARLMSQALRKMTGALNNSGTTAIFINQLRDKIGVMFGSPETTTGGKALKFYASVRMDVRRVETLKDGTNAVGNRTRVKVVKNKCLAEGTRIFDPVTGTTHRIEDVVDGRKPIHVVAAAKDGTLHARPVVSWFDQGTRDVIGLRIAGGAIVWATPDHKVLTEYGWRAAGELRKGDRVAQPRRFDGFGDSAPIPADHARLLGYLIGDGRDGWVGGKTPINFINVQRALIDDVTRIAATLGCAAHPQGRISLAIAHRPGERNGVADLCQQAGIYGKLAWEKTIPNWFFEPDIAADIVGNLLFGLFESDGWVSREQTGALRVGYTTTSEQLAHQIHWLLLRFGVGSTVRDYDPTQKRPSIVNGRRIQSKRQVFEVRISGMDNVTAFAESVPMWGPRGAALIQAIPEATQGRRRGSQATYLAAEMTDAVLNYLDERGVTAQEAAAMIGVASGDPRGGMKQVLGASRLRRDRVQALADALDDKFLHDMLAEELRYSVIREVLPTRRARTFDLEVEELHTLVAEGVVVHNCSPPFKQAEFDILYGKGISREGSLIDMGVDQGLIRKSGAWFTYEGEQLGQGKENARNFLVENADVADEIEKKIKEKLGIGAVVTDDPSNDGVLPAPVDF
In words: Fluorescence Cell-Free Homogeneous Dose Retest to Identify Inhibitors of RecA-Intein Splicing Activity. [Related pubchem assays (depositor defined):AID2097, AID2223, AID489010, AID492950]. Type of assay: functional.

Assay [2] has as its target T4, Replicative DNA helicase DnaB (Mycobacterium tuberculosis, UniProt P9WMR3).
T4 sequence (P9WMR3 whole entry): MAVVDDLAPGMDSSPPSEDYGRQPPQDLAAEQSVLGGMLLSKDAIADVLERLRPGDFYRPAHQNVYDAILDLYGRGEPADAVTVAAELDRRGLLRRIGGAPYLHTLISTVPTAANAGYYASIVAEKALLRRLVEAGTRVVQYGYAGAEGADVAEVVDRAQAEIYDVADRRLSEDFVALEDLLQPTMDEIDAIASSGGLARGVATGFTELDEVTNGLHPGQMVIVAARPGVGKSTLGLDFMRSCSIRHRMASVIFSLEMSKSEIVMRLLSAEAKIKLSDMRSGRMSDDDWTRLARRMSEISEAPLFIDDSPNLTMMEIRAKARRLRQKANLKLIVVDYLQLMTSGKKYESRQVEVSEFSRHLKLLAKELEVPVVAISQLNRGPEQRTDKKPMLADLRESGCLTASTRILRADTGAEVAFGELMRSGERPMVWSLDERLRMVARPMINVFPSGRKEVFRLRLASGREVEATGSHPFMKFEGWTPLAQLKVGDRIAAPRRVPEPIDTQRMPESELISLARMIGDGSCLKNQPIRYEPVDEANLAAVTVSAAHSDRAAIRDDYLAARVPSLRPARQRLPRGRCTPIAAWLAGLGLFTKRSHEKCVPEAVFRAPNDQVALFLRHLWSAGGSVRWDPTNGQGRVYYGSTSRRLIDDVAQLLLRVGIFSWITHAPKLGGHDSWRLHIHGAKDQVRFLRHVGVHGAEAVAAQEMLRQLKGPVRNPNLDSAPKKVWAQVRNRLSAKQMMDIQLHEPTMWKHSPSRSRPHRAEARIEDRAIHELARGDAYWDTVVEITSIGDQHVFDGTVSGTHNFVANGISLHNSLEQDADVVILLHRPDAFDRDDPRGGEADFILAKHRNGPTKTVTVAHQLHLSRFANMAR
The assay can be described thus: DnaB intein splicing inhibitors, dose response, biochemical, cell-free fluorescence (AID 449749). Type of assay: functional.

Another assay has as its target Genome polyprotein (dengue virus type 2, UniProt P29990). The assay can be described thus: flavivirus cap methylation enzyme inhibition – biochemical, confirmation dose response, primary screen (AID 588689). Type of assay: functional.

Genome polyprotein, sequence (P29990 2492-3391 limits assumed): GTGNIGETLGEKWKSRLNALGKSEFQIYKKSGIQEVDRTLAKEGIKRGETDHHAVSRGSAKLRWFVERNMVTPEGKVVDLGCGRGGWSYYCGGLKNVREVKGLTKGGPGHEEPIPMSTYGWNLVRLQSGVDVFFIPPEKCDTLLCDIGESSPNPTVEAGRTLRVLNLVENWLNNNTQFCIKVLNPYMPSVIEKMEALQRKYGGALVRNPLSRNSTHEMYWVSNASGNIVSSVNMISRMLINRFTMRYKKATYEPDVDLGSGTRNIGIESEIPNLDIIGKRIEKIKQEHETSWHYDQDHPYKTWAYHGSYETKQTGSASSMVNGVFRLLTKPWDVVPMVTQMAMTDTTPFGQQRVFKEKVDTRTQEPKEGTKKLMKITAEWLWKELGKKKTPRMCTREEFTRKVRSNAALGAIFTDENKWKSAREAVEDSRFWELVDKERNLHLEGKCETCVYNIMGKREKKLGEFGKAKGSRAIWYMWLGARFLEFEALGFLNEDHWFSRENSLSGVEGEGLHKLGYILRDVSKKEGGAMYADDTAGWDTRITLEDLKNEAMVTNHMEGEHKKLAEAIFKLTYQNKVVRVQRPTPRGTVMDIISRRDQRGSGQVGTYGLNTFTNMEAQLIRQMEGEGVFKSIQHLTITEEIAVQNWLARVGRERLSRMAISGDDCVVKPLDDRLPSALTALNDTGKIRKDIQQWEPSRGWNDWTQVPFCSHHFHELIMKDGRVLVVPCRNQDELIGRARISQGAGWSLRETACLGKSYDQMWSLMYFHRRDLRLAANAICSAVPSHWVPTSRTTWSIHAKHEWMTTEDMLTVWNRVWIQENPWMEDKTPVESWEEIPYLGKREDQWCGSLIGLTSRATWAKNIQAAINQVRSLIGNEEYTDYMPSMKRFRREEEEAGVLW
Cytochrome P450 2C19, sequence (P33261 whole entry): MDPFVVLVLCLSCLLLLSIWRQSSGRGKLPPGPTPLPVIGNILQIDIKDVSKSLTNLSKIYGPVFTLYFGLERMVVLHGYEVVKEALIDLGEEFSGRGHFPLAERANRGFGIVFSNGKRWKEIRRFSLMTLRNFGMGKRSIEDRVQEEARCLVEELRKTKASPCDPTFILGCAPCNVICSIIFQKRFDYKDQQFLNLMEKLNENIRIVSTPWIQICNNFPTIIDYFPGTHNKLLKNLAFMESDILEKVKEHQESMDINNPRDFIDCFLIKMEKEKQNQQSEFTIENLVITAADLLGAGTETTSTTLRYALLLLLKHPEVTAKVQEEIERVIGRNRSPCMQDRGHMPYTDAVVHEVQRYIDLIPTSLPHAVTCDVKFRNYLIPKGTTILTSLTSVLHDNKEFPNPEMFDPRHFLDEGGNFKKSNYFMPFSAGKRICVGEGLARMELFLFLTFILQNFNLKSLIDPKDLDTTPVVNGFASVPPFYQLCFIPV

In the case of `O=Cc1ccc(OCC(=O)Nc2ccccc2C(F)(F)F)cc1`, at Coagulation factor XII, the IC50 was > 50 µM (inactive). Still for that read-out and setting: next, `O=C(O)CC(=O)Nc1ccccc1C(=O)O`: > 50 µM (inactive). Consider `C=CCOC(=O)C1=C(C)N=C2SCCC(=O)N2C1c1cccs1` (stereo unspecified), for which the AC50 in assay [1] was > 70 µM (inactive). Moreover, the IC50 on Coagulation factor XII is > 50 µM (inactive). As to `CCC(C)[C@H](NC(=O)Nc1ccc(Oc2ccccc2)cc1)C(=O)O` (stereo partly specified), the values for the half-maximal activity concentration (AC50) on Cytochrome P450 2C19 and on Cytochrome P450 2C9 were 5.62 µM (inconclusive) and 8.91 µM (inconclusive), respectively. Besides, the IC50 at Leucine aminopeptidase is 21.8 µM (active). With `CCOC(=O)CC1=NN(c2ccccc2)C(=O)/C1=C\c1ccc(OC)cc1OC`, the EC50 on Protein RecA is 0.104 µM (active). Also, the AC50 in assay [2] was 0.805 µM (active). Besides, the IC50 at Genome polyprotein was 27.1 µM (active). Consider `COc1ccc(Cl)cc1/C=C1/C(=O)ON=C1C`, for which the IC50 on Genome polyprotein was > 100 µM (active). As for `COc1cc(C)c(S(=O)(=O)NCc2cccs2)cc1C`, at Coagulation factor XII, the IC50 was > 50 µM (inactive). On to `CC1=NN(c2ccccc2)C(=O)C1=Cc1ccccc1`, for which the IC50 at Genome polyprotein was 59.4 µM (active). Still for that read-out and setting: next, `CCN(CCCNc1cc2c(c(N)c1S(=O)(=O)O)C(=O)c1ccccc1C2=O)c1ccccc1`: 31.6 µM (active).

On to `c1csc(-c2nc3ccccc3[nH]2)c1`, for which the IC50 on Coagulation factor XII is > 50 µM (inactive). Same read-out and setting: next, `COc1cccc2sc(/N=C/N(C)C)nc12`: > 50 µM (inactive).

(Values after ChEMBL document CHEMBL1201862, “PubChem BioAssay data set” (2004).)
